What was measured:
P2X7 [1] = target: T1, P2X7 (Homo sapiens, UniProt Q99572); experiment: IL-1β release assay in THP-1 cells (sandwich ELISA); assay type: cell-based; design: release of mature IL-1β in the culture medium of THP-1 cells; endogenous in cells; host or cells: THP-1 cells (PMA-differentiated, LPS-primed); settings: PMA, LPS primed, stimulated with 0.8 mM BzATP, mature IL-1β release, read-out: hTHP-1/IL-ib IC50
T1 sequence (Q99572 1-595): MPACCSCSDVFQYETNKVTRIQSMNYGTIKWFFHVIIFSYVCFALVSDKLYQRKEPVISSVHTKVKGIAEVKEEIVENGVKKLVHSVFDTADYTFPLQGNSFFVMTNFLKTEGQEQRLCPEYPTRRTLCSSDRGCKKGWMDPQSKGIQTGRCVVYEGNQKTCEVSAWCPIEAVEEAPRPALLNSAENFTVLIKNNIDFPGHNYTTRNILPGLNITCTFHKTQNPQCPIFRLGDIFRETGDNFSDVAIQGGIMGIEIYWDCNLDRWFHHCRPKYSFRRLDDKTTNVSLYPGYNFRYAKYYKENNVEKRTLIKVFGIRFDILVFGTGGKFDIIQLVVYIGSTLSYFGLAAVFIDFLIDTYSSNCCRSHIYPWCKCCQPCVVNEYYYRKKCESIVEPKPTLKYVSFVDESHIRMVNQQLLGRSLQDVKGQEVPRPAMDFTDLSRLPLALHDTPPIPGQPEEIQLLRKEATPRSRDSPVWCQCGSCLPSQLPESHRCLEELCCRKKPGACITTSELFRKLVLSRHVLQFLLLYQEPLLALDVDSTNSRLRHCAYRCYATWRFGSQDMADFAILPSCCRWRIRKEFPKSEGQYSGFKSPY
Description: The activation of P2X7 by ATP leads to a fast transient activation of cells resulting in influx of Ca^2+ followed by conversion of pro-IL-1β to active IL-1β. The functional activity of P2X7 compounds was measured by the release of mature IL-1β in the culture medium of THP-1 cells, detected by sandwich ELISA. Cells were maintained in complete growth medium (RPMI 1640+10% HI-FCS+2 mM L-glutamine+1×PS). […] THP-1 cells were harvested from the flask in 50 ml by centrifugation for 3 min at 100 g. The cells were resuspended to 2×10^5 cells/ml in medium supplemented with 0.5 μM PMA and incubated. The cells were washed and resuspended to 1.5×10^5 cells/ml in medium complemented with 10 ng/ml LPS, and the cells were primed for 4 h at 37° C., 5% CO2. After addition of 20 μL of prediluted test compounds, blank, standard and control reagents, cells were incubated for a further 20 min at 37° C. and stimulated with 0.8 mM BzATP for 30 minutes. The cells were centrifuged, supernatant was collected and the presence of mature IL-1β was detected using Dual human IL-1b kit following manufacturer's instruction. The tetrahydrobenzodiazepine analogs effectively modulated the activity of P2X7 in the cells as measured by the levels of pro-inflammatory cytokine IL-1β, which is released by the activation of P2X7 receptor.

P2X7 [2] = target: T1, P2X7; experiment: Pore permeation assay (YO PRO dye uptake, BzATP-induced); assay type: cell-based; design: expressed in transfected cells; host or cells: HEK293; settings: HEK293 transfected with human P2X7 receptor; YO PRO dye 1 uM, BzATP 10 uM; read-out: hP2X7 IC50
Description: Agonist-induced pore formation was determined by measuring cellular uptake of YO PRO fluorescence dye in HEK293 transfected with human P2X7 receptor. A HEK293 cell over expressing human P2X7 was harvested using HQTase reagent to detach the cells from T75 cm flask. The harvested cells are centrifuged @ 1200 rpm for 5 min at room temperature. The viability of cells was determined by Trypan blue dye and the cells are plated @ 10,000 cell/well in 50 ul volume in a 384 W BD Poly lysine coated plate and incubated overnight at 37 C. After overnight incubation, the culture medium was replaced with 35 ul/well assay buffer (5 mM KCl, 0.1 mM CaCl2, 5 mM Glucose, 10 mM HEPES buffer pH7.4 containing 125 mM NaCl. The serial dilution of compounds was performed using Bravo liquid handling instrument and the compounds were added using Bravo to the cell assay plate starting at 2.5 uM with three dilutions for 10 points. The positive control inhibitor compound was added to column 23. The plate was shaken slowly on a plate shaker for 10 seconds. The cells were incubated with the compound for 20 minutes at room temperature. After the incubation period, YO PRO dye (1 uM) along with BzATP (10 uM) were added to cells at 10 ul/well. The plate was centrifuged at 1000 rpm for 5 seconds and incubated at room temperature for 30 minutes. The uptake of YO PRO dye into the cells was measured using Envision Fluorescence plate reader instrument (Perkin Elmer).

Row | SMILES | IC50 (P2X7 [1]) | IC50 (P2X7 [2])
1 | C[C@@H]1CCC[C@](O)(CNC(=O)c2c(Cl)ccc3nc(N4CCC(F)(F)C4)ccc23)C1 [Compound 10, 6-Chloro-2-(3,3-difluoropyrrolidin-1-yl)-quinoline-5-carboxylic acid ((1R,3R)-1-hydroxy-3-methyl-cyclohexylmethyl)-amide] | 10 to 100 nM | < 10 nM
2 | O=C(NCC1CCC(F)(F)CC1)c1c(Cl)ccc2nc(N3CC[C@H](CCO)C3)ccc12 [Compound 11, 6-Chloro-2-((R)-3-hydroxyethyl-pyrrolidin-1-yl)-quinoline-5-carboxylic acid (4,4-difluoro-cyclohexylmethyl)-amide] | 101 to 500 nM | < 10 nM
3 | O=C(NCC1CCC(F)(F)CC1)c1c(Cl)ccc2nc(N3CC[C@@H](CO)C3)ccc12 [Compound 12, 6-Chloro-2-((R)-3-hydroxymethyl-pyrrolidin-1-yl)-quinoline-5-carboxylic acid (4,4-difluoro-cyclohexylmethyl)-amide] | 101 to 500 nM | < 10 nM
4 | C[C@@H]1CCC[C@](O)(CNC(=O)c2c(Cl)ccc3nc(N4CCC(N5CCCC5)C4)ccc23)C1 (stereo partly drawn) [Compound 13, 6-Chloro-2-(3-pyrrolidinyl-pyrrolidin-1-yl)-quinoline-5-carboxylic acid ((1R,3R)-1-hydroxy-3-methyl-cyclohexylmethyl)-amide] | < 10 nM | < 10 nM
5 | CNC1CCN(c2ccc3c(C(=O)NCC4CCC(F)(F)CC4)c(Cl)ccc3n2)C1 (centres unmarked) [Compound 17, 6-Chloro-2-(3-methylamino-pyrrolidin-1-yl)-quinoline-5-carboxylic acid (4,4-difluoro-cyclohexylmethyl)-amide] | 10 to 100 nM | < 10 nM
6 | NC1CCN(c2ccc3c(C(=O)NCC4CCC(F)(F)CC4)c(Cl)ccc3n2)C1 (centres unmarked) [Compound 18] | 10 to 100 nM | < 10 nM
7 | O=C(NCC1CCC(F)(F)CC1)c1c(Cl)ccc2nc(C#CCO)ccc12 [Compound 19, 6-Chloro-2-(3-hydroxy-prop-1-ynyl)-quinoline-5-carboxylic acid (4,4-difluoro-cyclo hexylmethyl)-amide] | 10 to 100 nM | < 10 nM
8 | CN(C)[C@H]1CCN(c2ccc3c(C(=O)NCC4(O)CCC(F)(F)CC4)c(Cl)ccc3n2)C1 [Compound 20, 6-Chloro-2-((S)-3-dimethylamino-pyrrolidin-1-yl)-quinoline-5-carboxylic acid (4,4-difluoro-1-hydroxy-cyclohexylmethyl)-amide] | 10 to 100 nM | 10 to 100 nM
9 | O=C(NCC1CCC(F)(F)CC1)c1c(Cl)ccc2nc(N3CCC(NCCO)C3)ccc12 (centres unmarked) [Compound 21] | 10 to 100 nM | 10 to 100 nM
10 | CN(C)[C@@H]1CCN(c2ccc3c(C(=O)NCC4(O)CCC(F)(F)CC4)c(Cl)ccc3n2)C1 [Compound 23, 6-Chloro-2-((R)-3-dimethylamino-pyrrolidin-1-yl)-quinoline-5-carboxylic acid (4,4-difluoro-1-hydroxy-cyclohexylmethyl)-amide] | 10 to 100 nM | 10 to 100 nM
11 | O=C(NC[C@@]1(O)CCCC(F)(F)C1)c1c(Cl)ccc2nc(N3CCC(F)(F)C3)ccc12 [Compound 24, 6-Chloro-2-(3,3-difluoropyrrolidin-1-yl)-quinoline-5-carboxylic acid ((R)-3,3-difluoro-1-hydroxycyclohexylmethyl)-amide] | 10 to 100 nM | 10 to 100 nM
12 | O=C(NCC1(O)CCCCCC1)c1c(Cl)ccc2nc(N3CCCC3)ccc12 [Compound 25] | 10 to 100 nM | 10 to 100 nM
13 | O=C(NCC1CCC(F)(F)CC1)c1c(Cl)ccc2nc(N3CC[C@@H](CCO)C3)ccc12 [Compound 26, 6-Chloro-2-((S)-3-hydroxyethyl-pyrrolidin-1-yl)-quinoline-5-carboxylic acid (4,4-difluoro-cyclohexylmethyl)-amide] | 101 to 500 nM | 10 to 100 nM
14 | O=C(NCC1(O)CCC(F)(F)CC1)c1c(Cl)ccc2nc(N3CCC(N4CCCC4)C3)ccc12 (centres unmarked) [Compound 27, 6-Chloro-2-(3-pyrrolidinyl-pyrrolidin-1-yl)-quinoline-5-carboxylic acid (4,4-difluoro-1-hydroxy-cyclohexylmethyl)-amide] | 10 to 100 nM | 10 to 100 nM
15 | CN(C)C1CCN(c2ccc3c(C(=O)NCC4(O)CCC(F)(F)CC4)c(Cl)ccc3n2)C1 (centres unmarked) [Compound 28, 6-Chloro-2-(3-dimethylamino-pyrrolidin-1-yl)-quinoline-5-carboxylic acid (4,4-difluoro-1-hydroxy-cyclohexylmethyl)-amide] | 10 to 100 nM | 10 to 100 nM
16 | O=C(NCC1CCC(F)(F)CC1)c1c(Cl)ccc2nc(N3CC[C@H](CO)C3)ccc12 [Compound 29, 6-Chloro-2-((S)-3-hydroxymethyl-pyrrolidin-1-yl)-quinoline-5-carboxylic acid (4,4-difluoro-cyclohexylmethyl)-amide] | 10 to 100 nM | 10 to 100 nM
17 | O=C(NCC1CCC(F)(F)CC1)c1c(Cl)ccc2nc(N3CCC(N4CCCC4)C3)ccc12 (centres unmarked) [Compound 30, 6-Chloro-2-(3-pyrrolidinyl-pyrrolidin-1-yl)-quinoline-5-carboxylic acid (4,4-difluoro-cyclohexylmethyl)-amide] | 10 to 100 nM | 10 to 100 nM
18 | O=C(NCC1CCC(F)(F)CC1)c1c(Cl)ccc2nc(C3=CCOCC3)ccc12 [Compound 31, 6-Chloro-2-(3,6-dihydro-2H-pyran-4-yl)-quinoline-5-carboxylic acid (4,4-difluoro-cyclo hexyl methyl)-amide] | 101 to 500 nM | 10 to 100 nM
19 | NC1CCN(c2ccc3c(C(=O)NCC4(O)CCCC(F)(F)C4)c(Cl)ccc3n2)C1 (centres unmarked) [Compound 32, 2-(3-Aminopyrrolidin-1-yl)-6-chloro-quinoline-5-carboxylic acid (3,3-difluoro-1-hydroxycyclohexylmethyl)-amide] | 10 to 100 nM | 10 to 100 nM
20 | O=C(NCC1CCC(F)(F)CC1)c1c(Cl)ccc2nc(N3CC[C@@H](F)C3)ccc12 [Compound 33, 6-Chloro-2-((R)-3-fluoropyrrolidin-1-yl)-quinoline-5-carboxylic acid (4,4-difluoro-cyclohexylmethyl)-amide] | 101 to 500 nM | 10 to 100 nM
21 | O=C(NCC1CCCC(F)(F)C1)c1c(Cl)ccc2nc(N3CCC(N4CCCC4)C3)ccc12 (centres unmarked) [Compound 34, 6-Chloro-2-(3-pyrrolidinyl-pyrrolidin-1-yl)-quinoline-5-carboxylic acid (3,3-difluoro-cyclohexylmethyl)-amide] | 10 to 100 nM | 10 to 100 nM
22 | O=C(NCC1CCCC(F)(F)C1)c1c(Cl)ccc2nc(N3CCC(CO)C3)ccc12 (centres unmarked) [Compound 35, 6-Chloro-2-(3-hydroxymethylpyrrolidin-1-yl)-quinoline-5-carboxylic acid (3,3-difluoro-cyclohexylmethyl)-amide] | 10 to 100 nM | 10 to 100 nM

Reference: patent US9399623B2, “Quinoline derivatives and their use in neurodegenerative diseases” (Merck Patent GmbH, priority 2014, dated 2016)
